Seven compounds from patent US6344460B1, “Propynyl uracils” (Lonza Inc., priority 2000, dated 2002) can be followed below.

Test [1] has as its system Trametes versicolor (a white rot; ATCC 42462). The settings on record: T. versicolor; for IC50 (ppm): minimum concentration for 50% zone of inhibition, 9 days contact.
Protocol: (§1) Prod J. 45(1):86-9 (1995), was performed to determine the minimum concentration of uracil necessary to achieve a 50% zone of inhibition over 9 days of contact time.
The subject of test [2] is Gloephyllium trabeum (a brown rot, ATCC 11539). The settings on record: G. trabeum; for IC50 (ppm): minimum concentration for 50% zone of inhibition, 9 days contact.
Protocol: as §1
Test [3] deals with Chaetomium globosum (a soft rot, ATCC 6205). The settings on record: C. globosum; minimum concentration for 50% zone of inhibition, 9 days contact.
Protocol: as §1
Test [4] deals with Postia placenta (a brown rot, ATCC 11538). To be noted: P. placenta; for IC50 (ppm): minimum concentration for 50% zone of inhibition, 9 days contact.
Protocol: as §1
The test system of test [5] is Aspergillus niger ATCC #16404. As to the kind of experiment: Minimum inhibitory concentration by zone of inhibition assay. It counts as cell-based. The settings on record: 5 days contact, Day-Engley neutralizing media. An excerpt: A. niger ATCC #16404 was contacted with each sulfone for 5 days in a Day-Engley neutralizing media.

For the compound `O=c1c(Cl)cn(CC#CI)c(=O)n1CC#CI`, the “concentration at which a total kill was observed” value in test [1], in test [2] and in test [4] was “no more than 50 ppm” each time. The “IC50 (ppm)” value in test [1] is listed as 6.12 ppm; in test [2], 3.22 ppm; in test [3], 3.22 ppm; in test [4], less than 5.0 ppm. For the same compound, in test [5], the “5 Day Minimum Inhibitory Concentration Aspergillus niger” value lay in the range of 10 to 30 mg/L.

Take `O=c1[nH]cc([N+](=O)[O-])c(=O)n1CC#CI` [3N-(3-iodo-2-propynyl)-5-nitrouracil]: in test [5], the “5 Day Minimum Inhibitory Concentration Aspergillus niger” value was 30 to 100 mg/L.

For the compound `CCCCCCCCCC[N+](C)(C)CCCCCCCCCC.[Cl-]` [didecydimethyl ammonium chloride, didecyldimethyl ammonium chloride, reference compound], the “IC50 (ppm)” value came out at 53.9 ppm in test [1], 6.45 ppm in test [2], 62.9 ppm in test [3] and 5.6 ppm in test [4].

For the compound `O=c1ccn(CC#CI)c(=O)n1CC#CI` [1N, 3N-bis(3-iodo-2-propynyl)-uracil, 1N,3N-Bis(3-iodo-2-propynyl)-uracil], the “5 Day Minimum Inhibitory Concentration Aspergillus niger” value in test [5] was 3 to 10 mg/L.

Regarding `Cc1cn(CC#CI)c(=O)n(CC#CI)c1=O` [1N,3N-Bis(3-iodo-2-propynyl)-5-methyluracil], the “5 Day Minimum Inhibitory Concentration Aspergillus niger” value in test [5] is 10 to 30 mg/L.

Regarding `O=c1ccn(CC#CI)c(=O)n1C1O[C@H](CO)[C@@H](O)[C@H]1O` (stereo partly drawn) [1N-(3-iodo-2-propynyl)-3N-(D-1-ribose)-uracil], in test [5], the “5 Day Minimum Inhibitory Concentration Aspergillus niger” value lay in the range of 100 to 300 mg/L.

`O=c1c(F)cn(CC#CI)c(=O)n1-c1ccco1` [1N-(3-iodo-2-propynyl)-3N-(2-furanyl)-5-fluorouracil]: the “5 Day Minimum Inhibitory Concentration Aspergillus niger” value in test [5] was 30 to 100 mg/L.
